Key:
[1] = cited from earlier work
[2] = Aqueous solubility of HEMA monomer vs added NaCl at 70 °C (gravimetric titration, visual end point); assay type: physicochemical
Procedure: Deionized water (2.0 g) was added to a pre-weighed vial equipped with a magnetic stir bar. This vial was placed in an oil bath set at 70 °C and allowed to equilibrate for 20 min. HEMA was added to a second pre-weighed vial and then added dropwise to the first vial at 70 °C. After the addition of each drop of HEMA, the aqueous HEMA mixture was stirred at 70 °C for 1 min. Visual inspection was used to judge the point at which the HEMA monomer droplets were no longer fully dissolved. […] This experiment was repeated with the deionized water being replaced with a series of aqueous salt solutions (up to 3 M NaCl).
However, its aqueous solubility strongly depends on the presence of salt. For example, the digital photograph shown in Figure 1 (blue frame) clearly illustrates the transition from fully soluble HEMA in 0–0.6 M NaCl to (partially) immiscible HEMA in the presence of 1.5 M NaCl. This change in physical appearance is used as the “end point” for a series of gravimetric titrations to determine the aqueous solubility of HEMA in various salt solutions at 70 °C. For example, HEMA solubility is reduced from 1305 g dm^–3 in 0.75 M NaCl to just 93 g dm^–3 in 3 M NaCl (see Figure 1). In principle, this should be sufficient for the mode of polymerization to switch from an aqueous dispersion polymerization to an aqueous emulsion polymerization. Moreover, added salt was also expected to lower the critical DP at which PHEMA chains become water-insoluble. Combining the salt-tunable aqueous solubility of HEMA with a suitable salt-tolerant precursor such as PMPC should facilitate a systematic study of the effect of added salt on the polymerization kinetics and copolymer morphology.

In the case of `C=C(C)C(=O)OCc1ccccc1` [benzyl methacrylate], the “aqueous solubility of monomer” value [1] is listed as at most 1 g dm^–3.

For `C=C(C)C(=O)OCCO` [HEMA, 2-hydroxyethyl methacrylate], the “aqueous solubility of HEMA” value ([2]; 0.75 M NaCl, 70 °C) was 1305 g dm^–3, the “aqueous solubility of HEMA” value ([2]; 3 M NaCl, 70 °C) was 93 g dm^–3 and the solubility at 1 min ([2]; aqueous 1.5 M NaCl solution, water, 1.5 M NaCl, 70 °C, homogeneous at lower, emulsion at higher concentration, read-out: aqueous solubility of HEMA (homogeneous mixture vs emulsion)) was at least 171 mg/mL. The “miscibility of HEMA with water” value ([2]; no added salt) was “fully miscible with water in all proportions” and the “miscibility of HEMA with water” value ([2]; up to 0.6 M NaCl, 70 °C) was “water-miscible in all proportions”.

In the case of `C=Cc1ccccc1` [styrene], the “aqueous solubility of monomer” value [1] is given as at most 1 g dm^–3.

For `C=C(C)C(=O)OCC(F)(F)F` [2,2,2-trifluoroethyl methacrylate], the “aqueous solubility of monomer” value [1] is given as at most 1 g dm^–3.
